The test system of assay [1] is A549 cells. In words: Inhibition of TNF-α-induced apoptosis in A549 cells (crystal violet). It counts as cell-based. Conditions: letter following "III"; inhibition at 20 μM. The method, then:
The protocol used for determining inhibition of apoptosis in A549 cells was adopted from a system previously described (K. Last-Barney et al, J. of Immunology, 1988, 141, 527-530). Briefly, 10^5 cells in 200 μL 10% FBS/RPMI antibiotic containing culture medium were plated into 96 well round bottom culture plates and allowed to adhere for 6 hours at 37° C. in a 5% CO2 atmosphere. The media was removed and 100 μL of RPMI+1 μg/mL actinomycin-D was added to each well, followed by 100 μL of 20 μM solution of compound in 1% DMSO. This was incubated for 1 hour. […] The media was aspirated from the plates and 100 μL of 0.5% crystal violet in 20% methanol was added. After 10 minutes the plates were rinsed with water to remove excess stain, air dried, and read on a Spectramax spectrophotometer at a wavelength of 590 nm.

Assay [2] has as its target T1, CXCR2 (Homo sapiens, UniProt P25025).
T1 construct: host or cells: CHO cells
T1 sequence (P25025 1-360): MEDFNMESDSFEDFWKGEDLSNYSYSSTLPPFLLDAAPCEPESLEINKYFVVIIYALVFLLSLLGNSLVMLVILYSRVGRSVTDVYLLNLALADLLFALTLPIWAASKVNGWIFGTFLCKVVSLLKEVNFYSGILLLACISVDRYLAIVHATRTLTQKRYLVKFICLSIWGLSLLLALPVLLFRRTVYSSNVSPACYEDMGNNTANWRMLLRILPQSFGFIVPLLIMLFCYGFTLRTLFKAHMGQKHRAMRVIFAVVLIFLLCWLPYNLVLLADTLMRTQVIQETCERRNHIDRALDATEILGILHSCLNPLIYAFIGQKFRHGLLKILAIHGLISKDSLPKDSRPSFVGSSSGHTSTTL
Briefly: CXCR2 radioligand binding assay with 125I labeled IL-8 (Panlabs). The settings on record: for inhibition at 20 µM: letter following "II", read-out: Biological Activity II (CXCR2): extent of inhibition; for IC50: read-out: IC50 (after II, CXCR2). The source says:
This assay is a radioligand binding assay in human recombinant CHO cells with ^125I labeled IL-8 as ligand as described in The Journal of Biological Chemistry (Ahuja, S. K.; Murphy, P. M;. J. Biol. Chem. 1996, 271, 20545).

Each structure is given as a SMILES string. Read-outs that look alike come from different tables or passages of the source. Some results are limits rather than exact numbers.

For orientation: inhibition means the percentage by which the read-out fell short of the control. As a reminder, the IC50 is the midpoint of a concentration-inhibition curve. With `COC(=O)C[C@H]1C(=O)N2C[C@@H](NC(=O)c3cnc4ccccc4c3)C[C@H]2C(=O)N1Cc1ccc(CC(=O)NCc2c(OC)cc(OC)cc2OC)cc1`, the “Biological Activity III (apoptosis): extent of inhibition” value in assay [1] was “A (A refers to >50% inhibition at 20 μM)”. In assay [2], the inhibition at 20 µM was above 50% and the IC50 came to 25 µM.

For the compound `COc1cc(OC)c(CNC(=O)Cc2ccc(CN3C(=O)[C@@H]4C[C@H](NC(=O)OCC5c6ccccc6-c6ccccc65)CN4C(=O)[C@@H]3CC(=O)O)cc2)c(OC)c1`, in assay [2], the inhibition at 20 µM was above 50%. The IC50 in assay [2] (unit μm [sic]) was 15 µM.

The record behind these values is US6815214B2, “Pharmaceutical uses and synthesis of diketopiperazines” (Celltech R & D, Inc., priority 2000, dated 2004).
